Patent US20260015364A1, “PIPERAZINE BRIDGE-SUBSTITUTED HETEROCYCLIC PYRIMIDINE COMPOUND” (MEDSHINE DISCOVERY INC., priority 2022, published 2026)

Test system: p-ERK in GP2D cells
Test: p-ERK inhibition test of GP2D cells (HTRF)
Format: cell-based
Details: Homo sapiens, 1 hour compound incubation
Procedure: • 1). GP2D cells are seeded in a transparent 96-well cell culture plate, with 80 μL of cell suspension per well and 8000 cells per well, and the cell plate is incubated in a carbon dioxide incubator at 37° C. overnight; • 2). 2 μL of the compound is added to 78 μL of cell culture medium; after mixing well, 20 μL of the compound solution is taken and added to the corresponding cell plate wells, and the cell plate is put back into the carbon dioxide incubator to incubate for another 1 hour; • 3). After the incubation is completed, the cell supernatant is discarded, and 50 μL of 1× cell lysate is added to each well, and incubated at room temperature for 30 minutes with shaking; • 4). Phospho-ERK1/2 Eu Cryptate antibody and Phospho-ERK1/2 d2 antibody are 20-fold diluted using detection buffer; • 5). […] After the incubation is completed, a multimode microplate reader is used to read HTRF excitation: 320 nm, emission: 615 nm, 665 nm; • 7). The IC50 of the test compound is calculated.
• 1). […] After the incubation was completed, a multimode microplate reader was used to read HTRF excitation: 320 nm, emission: 615 nm, 665 nm; • 7) The IC50 of the test compound was calculated.

Nc1cc(F)c(C(F)(F)F)c(-c2ncc3c(N4CC5C=CC(C4)N5)nc(OC[C@@]45CCCN4C[C@H](F)C5)nc3c2F)c1 [Compound 1]
IC50: 4.75 nM
